This note sets out measurements from patent publication USRE39496E1, “Kahalalide F and compositions and uses thereof” (PharmaMar, S.A., priority 1993, dated 2007).

One assay concerns Tricophyton mentagrophy. The conditions noted are these: 50 μg/disk.
A further assay has as its system Penicillium notatum. The conditions noted are these: 50 μg/disk.
In a further assay the test system is Saccharomyces cerevisiac. The conditions noted are these: 50 μg/disk.
In assay [1] the test system is human colon carcinoma HT-29. Put plainly: In vitro cytotoxicity, HT-29 cell culture. It is filed as cell-based. To be noted: HT-29 cells. The method, then: (§1) The antitumor activities of this compound has been determined “in vitro” in cell cultures of human lung carcinoma A-549 and human colon carcinoma HT-29. The procedure was carried out using the metnhodology methodology described by Raymond J. Bergeron et al. Biochem. Bioph. Res. Comm. 1984, 121(3), 848-854 and by Alan C. Schroeder et al. J. Med. Chem. 1981, 24 1078-1083.

A further assay relates to Aspergillus oryzae. To be noted: 50 μg/disk.
The subject of assay [2] is human lung carcinoma A-549. Put plainly: In vitro cytotoxicity, A-549 cell culture. To be noted: A-549 cells. It is filed as cell-based. Here is the method:
as §1

The test system of the next assay is HSV-1. To be noted: CV-1 cells / HSV-1.
A further assay deals with HSV II. To be noted: Mv 2 Lu cells / HSV II; concentration giving the printed % reduction.
For another assay, the system named is Candida albicans. To be noted: 50 μg/disk.

With `C/C=C1\NC(=O)[C@H](Cc2ccccc2)NC(=O)[C@@H](C(C)C)NC(=O)[C@@H]([C@@H](C)CC)NC(=O)[C@H](NC(=O)[C@H](NC(=O)[C@H](CCCN)NC(=O)[C@H]2CCCN2C(=O)[C@H](NC(=O)[C@@H](NC(=O)[C@@H](NC(=O)[C@H](NC(=O)CCCC(C)C)C(C)C)[C@@H](C)O)C(C)C)C(C)C)[C@@H](C)CC)[C@@H](C)OC(=O)[C@H](C(C)C)NC1=O` [Kahalalide F], the “Antifungal 6 mm disk” value in the assay with Tricophyton mentagrophy is 34 mm; in the assay with Penicillium notatum, 26 mm; with Saccharomyces cerevisiac it was “neg”; in the assay on Aspergillus oryzae, 19 mm; in the assay with Candida albicans, 16 mm. In addition, the “Cytoxicity (IC50)” value in assay [1] is 0.25 to 0.5 µg/mL; in [2], 2.5 µg/mL. The “Antiviral” value in the assay with HSV-1 was >8 µg/mL; in the assay with HSV II it was 0.5 µg/mL; in the assay with VSV, >8 µg/mL.
